This note sets out measurements from patent US11331299B2, “Medicinal use of serrulatane diterpenes” (The University of Sydney, priority 2016, dated 2022).

Structures are written as SMILES.

Common to all, as to assay: biochemical
Experiment [1] deals with enzymes (Bioprint panel) (Homo sapiens, UniProt P56817). The settings on record: BACE-1 (h) (beta -secretase); 10 μM; read-out: % Inhibition of Control Values.
Experiment [2] addresses enzymes (Bioprint panel) (Homo sapiens, UniProt P06241). The following applies: Fyn kinase (h); 10 μM; read-out: % Inhibition of Control Values.
The target of experiment [3] is enzymes (Bioprint panel) (Homo sapiens, UniProt P00519). The settings on record: Abl kinase (h); 10 μM; read-out: % Inhibition of Control Values.
The target of experiment [4] is enzymes (Bioprint panel) (Rattus norvegicus, UniProt P21396). The settings on record: MAO-A (antagonist radioligand); 10 μM; read-out: % Inhibition of Control Values.
Experiment [5] has as its target T1, enzymes (Bioprint panel) (Homo sapiens, UniProt Q08499).
T1 construct: other: PDE4D2 (h); 10 μM; PDE4D2 (h)
The following applies: PDE4D2 (h); 10 μM; read-out: % Inhibition of Control Values.

The target of experiment [6] is enzymes (Bioprint panel) (Bos taurus, UniProt P80457). The following applies: xanthine oxidase/superoxide O2- scavenging; 10 μM; read-out: % Inhibition of Control Values.
Experiment [7] concerns the target enzymes (Bioprint panel) (Homo sapiens, UniProt P06213). The following applies: IRK (h) (InsR); 10 μM; read-out: % Inhibition of Control Values.
Experiment [8] deals with enzymes (Bioprint panel) (Homo sapiens, UniProt P42574). The following applies: caspase-3 (h); 10 μM; read-out: % Inhibition of Control Values.
Experiment [9] has as its system enzymes (Bioprint panel). The following applies: COMT (catechol- O-methyl transferase); 10 μM.
Experiment [10] deals with enzymes (Bioprint panel) (Homo sapiens, UniProt P24941). The settings on record: CDK2 (h) (cycA); 10 μM; read-out: % Inhibition of Control Values.
The target of experiment [11] is enzymes (Bioprint panel) (Homo sapiens, UniProt P17948). The following applies: FLT-1 kinase (h) (VEGFR1); 10 μM; read-out: % Inhibition of Control Values.
The target of experiment [12] is T2, enzymes (Bioprint panel) (Homo sapiens, UniProt O00408).
T2 construct: other: PDE2A1 (h); 10 μM; PDE2A1 (h)
The settings on record: PDE2A1 (h); 10 μM; read-out: % Inhibition of Control Values.

Experiment [13] concerns T3, enzymes (Bioprint panel).
T3 construct: other: ATPase (Na+/K+); 10 μM
The settings on record: ATPase (Na+/K+); 10 μM.

Experiment [14] addresses T4, enzymes (Bioprint panel) (Bos taurus, UniProt P11541+P23439).
T4 construct: other: PDE6 (non-selective); 10 μM
The following applies: PDE6 (non-selective); 10 μM; read-out: % Inhibition of Control Values.

Experiment [15] addresses enzymes (Bioprint panel) (Homo sapiens, UniProt P08253). The following applies: MMP-2 (h); 10 μM; read-out: % Inhibition of Control Values.
Experiment [16] addresses enzymes (Bioprint panel) (Homo sapiens, UniProt P12821). The following applies: ACE (h); 10 μM; read-out: % Inhibition of Control Values.
In experiment [17] the target is enzymes (Bioprint panel) (Homo sapiens, UniProt O76074). The following applies: PDE5 (h) (non-selective); 10 μM; read-out: % Inhibition of Control Values.
The target in experiment [18] is enzymes (Bioprint panel) (Homo sapiens, UniProt P03956). The settings on record: MMP-1 (h); 10 μM; read-out: % Inhibition of Control Values.
Sequence of enzymes (Bioprint panel) (Homo sapiens, UniProt P03956) (P03956 100-469): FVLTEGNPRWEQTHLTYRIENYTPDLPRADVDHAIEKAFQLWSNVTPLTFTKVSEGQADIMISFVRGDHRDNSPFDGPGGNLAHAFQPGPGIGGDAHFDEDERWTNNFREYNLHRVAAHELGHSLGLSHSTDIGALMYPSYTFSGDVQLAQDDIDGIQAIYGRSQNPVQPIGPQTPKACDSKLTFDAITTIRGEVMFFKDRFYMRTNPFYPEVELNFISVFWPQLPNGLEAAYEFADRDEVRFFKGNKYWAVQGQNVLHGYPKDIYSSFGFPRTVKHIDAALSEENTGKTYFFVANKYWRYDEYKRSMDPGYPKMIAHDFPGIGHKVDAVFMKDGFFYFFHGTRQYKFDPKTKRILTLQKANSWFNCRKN

Sequence of enzymes (Bioprint panel) (Homo sapiens, UniProt P17948) (P17948 27-1338): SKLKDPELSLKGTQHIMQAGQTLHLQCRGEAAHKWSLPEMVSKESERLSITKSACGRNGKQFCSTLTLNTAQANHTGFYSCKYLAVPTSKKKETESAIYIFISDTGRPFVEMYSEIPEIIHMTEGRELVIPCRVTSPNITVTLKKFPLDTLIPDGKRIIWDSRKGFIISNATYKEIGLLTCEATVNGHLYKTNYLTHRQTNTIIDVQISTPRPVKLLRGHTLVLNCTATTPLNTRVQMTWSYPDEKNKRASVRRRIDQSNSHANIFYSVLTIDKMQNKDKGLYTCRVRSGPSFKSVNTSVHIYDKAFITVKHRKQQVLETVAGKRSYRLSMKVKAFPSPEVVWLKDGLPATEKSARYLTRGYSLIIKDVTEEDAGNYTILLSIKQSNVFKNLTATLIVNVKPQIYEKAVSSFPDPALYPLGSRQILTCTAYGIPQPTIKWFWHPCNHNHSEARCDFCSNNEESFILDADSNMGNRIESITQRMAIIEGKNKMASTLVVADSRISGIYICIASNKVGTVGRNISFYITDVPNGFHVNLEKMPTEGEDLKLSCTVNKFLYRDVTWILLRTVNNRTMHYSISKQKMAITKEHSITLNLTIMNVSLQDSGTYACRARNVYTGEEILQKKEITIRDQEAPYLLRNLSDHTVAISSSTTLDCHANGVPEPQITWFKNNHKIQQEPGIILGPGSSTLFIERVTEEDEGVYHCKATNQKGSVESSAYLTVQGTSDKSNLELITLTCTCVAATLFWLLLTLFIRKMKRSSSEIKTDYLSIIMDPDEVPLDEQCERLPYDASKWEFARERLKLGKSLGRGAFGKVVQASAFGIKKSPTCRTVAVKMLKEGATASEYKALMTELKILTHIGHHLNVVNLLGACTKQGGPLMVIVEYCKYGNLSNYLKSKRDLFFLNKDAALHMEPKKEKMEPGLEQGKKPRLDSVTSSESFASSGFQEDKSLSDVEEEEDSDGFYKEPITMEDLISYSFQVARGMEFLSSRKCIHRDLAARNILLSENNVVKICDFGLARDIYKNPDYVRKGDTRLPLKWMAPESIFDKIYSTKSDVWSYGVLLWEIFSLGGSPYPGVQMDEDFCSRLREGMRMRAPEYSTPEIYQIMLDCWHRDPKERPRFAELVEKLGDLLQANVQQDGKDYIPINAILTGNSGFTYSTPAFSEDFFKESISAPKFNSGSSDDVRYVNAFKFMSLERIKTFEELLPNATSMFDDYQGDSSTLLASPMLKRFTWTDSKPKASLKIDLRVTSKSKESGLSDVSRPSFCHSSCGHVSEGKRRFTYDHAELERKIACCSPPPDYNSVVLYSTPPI
T1 sequence (Q08499 303-809): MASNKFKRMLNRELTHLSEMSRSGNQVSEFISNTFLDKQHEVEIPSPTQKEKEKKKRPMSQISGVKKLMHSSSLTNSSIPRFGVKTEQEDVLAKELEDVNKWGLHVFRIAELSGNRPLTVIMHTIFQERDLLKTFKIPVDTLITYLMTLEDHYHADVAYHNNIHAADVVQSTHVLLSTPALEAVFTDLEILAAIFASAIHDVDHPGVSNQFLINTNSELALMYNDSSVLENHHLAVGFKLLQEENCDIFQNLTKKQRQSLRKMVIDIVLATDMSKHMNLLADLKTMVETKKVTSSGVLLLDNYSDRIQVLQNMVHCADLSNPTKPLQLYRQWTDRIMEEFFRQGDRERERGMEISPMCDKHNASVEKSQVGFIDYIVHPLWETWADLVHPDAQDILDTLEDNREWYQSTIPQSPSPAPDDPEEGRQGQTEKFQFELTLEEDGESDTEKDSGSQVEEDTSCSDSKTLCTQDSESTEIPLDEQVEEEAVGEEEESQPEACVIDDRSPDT
Sequence of enzymes (Bioprint panel) (Homo sapiens, UniProt P12821) (P12821 30-1306): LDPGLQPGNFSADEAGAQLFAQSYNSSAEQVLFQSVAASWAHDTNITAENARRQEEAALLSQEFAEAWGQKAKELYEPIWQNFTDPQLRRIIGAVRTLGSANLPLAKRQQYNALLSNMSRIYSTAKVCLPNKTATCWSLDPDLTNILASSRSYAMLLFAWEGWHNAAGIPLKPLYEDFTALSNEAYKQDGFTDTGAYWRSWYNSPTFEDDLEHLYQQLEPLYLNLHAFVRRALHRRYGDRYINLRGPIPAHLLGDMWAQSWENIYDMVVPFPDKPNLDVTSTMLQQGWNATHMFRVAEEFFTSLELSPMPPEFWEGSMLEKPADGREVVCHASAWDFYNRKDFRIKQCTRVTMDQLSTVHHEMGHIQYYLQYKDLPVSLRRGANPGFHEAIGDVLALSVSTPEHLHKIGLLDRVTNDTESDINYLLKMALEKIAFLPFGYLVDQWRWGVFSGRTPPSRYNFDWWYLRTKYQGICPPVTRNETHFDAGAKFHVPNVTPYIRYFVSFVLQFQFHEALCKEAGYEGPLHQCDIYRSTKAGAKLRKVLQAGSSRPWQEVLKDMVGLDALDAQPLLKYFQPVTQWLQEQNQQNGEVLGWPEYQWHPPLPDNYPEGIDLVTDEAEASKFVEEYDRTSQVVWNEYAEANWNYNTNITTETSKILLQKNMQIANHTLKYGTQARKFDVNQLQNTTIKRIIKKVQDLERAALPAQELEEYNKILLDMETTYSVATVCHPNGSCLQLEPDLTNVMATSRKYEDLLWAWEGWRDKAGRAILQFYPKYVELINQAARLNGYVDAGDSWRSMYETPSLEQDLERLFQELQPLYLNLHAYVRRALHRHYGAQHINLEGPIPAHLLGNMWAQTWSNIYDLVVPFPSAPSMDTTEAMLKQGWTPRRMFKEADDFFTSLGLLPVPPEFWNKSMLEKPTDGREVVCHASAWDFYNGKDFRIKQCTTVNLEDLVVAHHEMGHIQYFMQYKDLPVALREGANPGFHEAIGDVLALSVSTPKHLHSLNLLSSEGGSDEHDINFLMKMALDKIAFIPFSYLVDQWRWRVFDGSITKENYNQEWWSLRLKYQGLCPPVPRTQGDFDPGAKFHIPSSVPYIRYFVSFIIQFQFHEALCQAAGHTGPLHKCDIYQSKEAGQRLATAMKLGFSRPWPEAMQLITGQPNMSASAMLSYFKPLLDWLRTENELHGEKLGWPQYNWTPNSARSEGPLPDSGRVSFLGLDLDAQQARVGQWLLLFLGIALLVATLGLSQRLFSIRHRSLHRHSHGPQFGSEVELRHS
Sequence of enzymes (Bioprint panel) (Homo sapiens, UniProt P42574) (P42574 29-277): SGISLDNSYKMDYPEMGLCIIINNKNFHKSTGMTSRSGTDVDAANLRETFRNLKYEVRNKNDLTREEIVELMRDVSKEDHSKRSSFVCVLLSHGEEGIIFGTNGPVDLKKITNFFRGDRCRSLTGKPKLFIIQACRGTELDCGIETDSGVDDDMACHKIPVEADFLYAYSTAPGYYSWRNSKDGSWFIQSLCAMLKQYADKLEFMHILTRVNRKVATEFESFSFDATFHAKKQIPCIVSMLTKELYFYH
Sequence of enzymes (Bioprint panel) (Bos taurus, UniProt P80457) (P80457 whole entry): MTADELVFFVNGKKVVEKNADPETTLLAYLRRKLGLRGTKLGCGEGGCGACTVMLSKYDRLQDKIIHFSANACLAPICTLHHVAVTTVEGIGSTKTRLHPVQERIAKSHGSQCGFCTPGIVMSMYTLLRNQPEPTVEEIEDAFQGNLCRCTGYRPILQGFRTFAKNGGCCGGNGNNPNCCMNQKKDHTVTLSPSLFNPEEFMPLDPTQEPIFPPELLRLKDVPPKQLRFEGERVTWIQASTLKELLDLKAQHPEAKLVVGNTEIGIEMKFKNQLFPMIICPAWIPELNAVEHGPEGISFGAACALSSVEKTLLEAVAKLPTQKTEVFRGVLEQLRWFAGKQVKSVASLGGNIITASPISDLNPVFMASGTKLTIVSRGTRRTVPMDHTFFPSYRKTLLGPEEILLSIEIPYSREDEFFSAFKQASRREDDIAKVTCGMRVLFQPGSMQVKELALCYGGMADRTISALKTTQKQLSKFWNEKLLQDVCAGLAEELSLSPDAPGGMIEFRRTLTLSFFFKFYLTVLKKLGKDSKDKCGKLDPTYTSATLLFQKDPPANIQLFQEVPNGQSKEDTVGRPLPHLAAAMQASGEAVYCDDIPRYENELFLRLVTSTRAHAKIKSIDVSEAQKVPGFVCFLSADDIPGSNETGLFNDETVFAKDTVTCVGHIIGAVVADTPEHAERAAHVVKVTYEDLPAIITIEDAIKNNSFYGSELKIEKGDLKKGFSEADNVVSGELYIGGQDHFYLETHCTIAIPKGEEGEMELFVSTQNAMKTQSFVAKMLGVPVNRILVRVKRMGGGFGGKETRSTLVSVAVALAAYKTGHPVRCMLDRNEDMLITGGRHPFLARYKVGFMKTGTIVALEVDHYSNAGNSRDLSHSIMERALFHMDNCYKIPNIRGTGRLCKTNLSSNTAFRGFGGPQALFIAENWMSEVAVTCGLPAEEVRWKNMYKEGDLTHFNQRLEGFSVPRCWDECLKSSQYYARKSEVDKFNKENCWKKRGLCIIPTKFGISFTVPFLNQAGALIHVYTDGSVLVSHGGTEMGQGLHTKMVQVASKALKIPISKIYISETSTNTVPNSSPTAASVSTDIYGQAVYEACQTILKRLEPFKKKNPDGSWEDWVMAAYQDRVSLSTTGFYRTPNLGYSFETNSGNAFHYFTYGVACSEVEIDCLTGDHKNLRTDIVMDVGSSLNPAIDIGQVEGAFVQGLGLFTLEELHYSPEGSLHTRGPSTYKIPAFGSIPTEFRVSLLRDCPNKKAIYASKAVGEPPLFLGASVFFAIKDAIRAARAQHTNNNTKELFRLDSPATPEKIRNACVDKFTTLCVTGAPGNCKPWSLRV

By inhibition is commonly meant the change of the read-out against control, counted positive when it falls. As for `CC(C)=CCC[C@H](CO)[C@@H]1CC[C@@H](C)c2c1cc(C)c(O)c2O` [Compound 1, 7,8,18-trihydroxyserrulat-14-ene], the inhibition at 10 µM at enzymes (Bioprint panel) [1] is 0%; at enzymes (Bioprint panel) [2], 6%; on enzymes (Bioprint panel) [3], 14%; on enzymes (Bioprint panel) [4], 15%; on enzymes (Bioprint panel) [5] it was 55%; at enzymes (Bioprint panel) [6], -140%. Further, the inhibition at 10 µM on enzymes (Bioprint panel) [7] is -15%; at enzymes (Bioprint panel) [8], -3%; on enzymes (Bioprint panel) [10], 12%; on enzymes (Bioprint panel) [11], 36%; on enzymes (Bioprint panel) [12], 43%; on enzymes (Bioprint panel) [14], 4%. The inhibition at 10 µM is 0% on enzymes (Bioprint panel) [15], 14% at enzymes (Bioprint panel) [16], 11% at enzymes (Bioprint panel) [17] and -2% at enzymes (Bioprint panel) [18]. The “% Inhibition of Control Values” was −6% in the experiment on enzymes (Bioprint panel) [9] and 22% in the experiment with enzymes (Bioprint panel) [13].
